In brackets after ≈: the same amount, converted by molar mass. Where two headings read alike, the source gives them in different places.
What was measured:
human (hACC2) = human (hACC2) (Homo sapiens, UniProt O00763); test: In vitro ACC inhibition assay (ADP-Glo), hACC2; format: biochemical; details: Table 2b, additional results, 5 nM ACC2, 20 μM ATP, 20 μM acetyl-CoA
Experimental: The detailed procedure is as follows. […] 10 μL ADP glo reagent was added. […] 20 μL kinase detection reagent was added.

C. albicans = test: Antifungal Activity Assay (broth microtiter MIC), C. albicans; format: cell-based, Candida albicans; details: Candida albicans, ATCC90028, 48 h
Summary of the method: (§1)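 CLSI M27-A3 broth microdilution in RPMI 1640+MOPS, final inoculum 2.5×10^3 CFU/mL from overnight Sabouraud cultures grown at 35 °C. MIC read visually at 48 h against growth control.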

C. krusei = test: Antifungal Activity Assay (broth microtiter MIC), C. krusei; format: cell-based, Candida krusei; details: Pichia kudriavzevii, ATCC6258, 48 h
Summary of the method: as §1

C. parapsilosis = test: Antifungal Activity Assay (broth microtiter MIC), C. parapsilosis; format: cell-based, Candida parapsilosis; details: Lodderomyces parapsilosis, ATCC22019, 48 h
Summary of the method: as §1

Botrtyis cinerea (Bc) = test: Growth inhibition assay of fungal pathogens, Bc; format: cell-based; details: 48 h, growth inhibition at 48 hours vs 2% DMSO control
Summary of the method: (§2)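 Percent inhibition derived at 48 hours from OD600 and visual scores versus 2% DMSO control, with media+DMSO blank as background. Spore inocula in 17% V8 medium were sized from 48 h growth curves; compounds tested at final 50/10/2 or 2/0.4/0.08 ppm.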

[1] = tested on: Collectotrichum graminicola (Cg); test: Growth inhibition assay of fungal pathogens, Cg; format: cell-based; details: 48 h, growth inhibition at 48 hours vs 2% DMSO control
Summary of the method: as §2

Diplodia maydis (Dm) = test: Growth inhibition assay of fungal pathogens, Dm; format: cell-based; details: Stenocarpella maydis, 48 h, growth inhibition at 48 hours vs 2% DMSO control
Summary of the method: as §2

[2] = tested on: Fusarium moniliforme (Fm); test: Growth inhibition assay of fungal pathogens, Fm; format: cell-based; details: Fusarium verticillioides, 48 h, read-out: Concentration at 90% Inhibition Fm
Summary of the method: as §2

[3] = tested on: Fusarium virguliforme (Fv); test: Growth inhibition assay of fungal pathogens, Fv; format: cell-based; details: 48 h
Summary of the method: as §2

[4] = tested on: Phytophthora capsici (Pc); test: Growth inhibition assay of fungal pathogens, Pc; format: cell-based; details: 48 h
Summary of the method: as §2

Rhizoctonia solani (Rs) = test: Growth inhibition assay of fungal pathogens, Rs; format: cell-based; details: 48 h
Septoria tritici (St) = test: Growth inhibition assay of fungal pathogens, St; format: cell-based; details: Zymoseptoria tritici, 48 h, growth inhibition at 48 hours vs 2% DMSO control
Summary of the method: as §2

fungal (fACC2) = fungal (fACC2) (UniProt Q00955); details: read-out: fACC2 (in vitro ACC2 Inhibition Assay, IC50); Table 2b, additional results; ADP-Glo, 5 nM ACC2, 20 μM ATP, 20 μM acetyl-CoA
Sequence of fungal (fACC2) (Q00955 whole entry): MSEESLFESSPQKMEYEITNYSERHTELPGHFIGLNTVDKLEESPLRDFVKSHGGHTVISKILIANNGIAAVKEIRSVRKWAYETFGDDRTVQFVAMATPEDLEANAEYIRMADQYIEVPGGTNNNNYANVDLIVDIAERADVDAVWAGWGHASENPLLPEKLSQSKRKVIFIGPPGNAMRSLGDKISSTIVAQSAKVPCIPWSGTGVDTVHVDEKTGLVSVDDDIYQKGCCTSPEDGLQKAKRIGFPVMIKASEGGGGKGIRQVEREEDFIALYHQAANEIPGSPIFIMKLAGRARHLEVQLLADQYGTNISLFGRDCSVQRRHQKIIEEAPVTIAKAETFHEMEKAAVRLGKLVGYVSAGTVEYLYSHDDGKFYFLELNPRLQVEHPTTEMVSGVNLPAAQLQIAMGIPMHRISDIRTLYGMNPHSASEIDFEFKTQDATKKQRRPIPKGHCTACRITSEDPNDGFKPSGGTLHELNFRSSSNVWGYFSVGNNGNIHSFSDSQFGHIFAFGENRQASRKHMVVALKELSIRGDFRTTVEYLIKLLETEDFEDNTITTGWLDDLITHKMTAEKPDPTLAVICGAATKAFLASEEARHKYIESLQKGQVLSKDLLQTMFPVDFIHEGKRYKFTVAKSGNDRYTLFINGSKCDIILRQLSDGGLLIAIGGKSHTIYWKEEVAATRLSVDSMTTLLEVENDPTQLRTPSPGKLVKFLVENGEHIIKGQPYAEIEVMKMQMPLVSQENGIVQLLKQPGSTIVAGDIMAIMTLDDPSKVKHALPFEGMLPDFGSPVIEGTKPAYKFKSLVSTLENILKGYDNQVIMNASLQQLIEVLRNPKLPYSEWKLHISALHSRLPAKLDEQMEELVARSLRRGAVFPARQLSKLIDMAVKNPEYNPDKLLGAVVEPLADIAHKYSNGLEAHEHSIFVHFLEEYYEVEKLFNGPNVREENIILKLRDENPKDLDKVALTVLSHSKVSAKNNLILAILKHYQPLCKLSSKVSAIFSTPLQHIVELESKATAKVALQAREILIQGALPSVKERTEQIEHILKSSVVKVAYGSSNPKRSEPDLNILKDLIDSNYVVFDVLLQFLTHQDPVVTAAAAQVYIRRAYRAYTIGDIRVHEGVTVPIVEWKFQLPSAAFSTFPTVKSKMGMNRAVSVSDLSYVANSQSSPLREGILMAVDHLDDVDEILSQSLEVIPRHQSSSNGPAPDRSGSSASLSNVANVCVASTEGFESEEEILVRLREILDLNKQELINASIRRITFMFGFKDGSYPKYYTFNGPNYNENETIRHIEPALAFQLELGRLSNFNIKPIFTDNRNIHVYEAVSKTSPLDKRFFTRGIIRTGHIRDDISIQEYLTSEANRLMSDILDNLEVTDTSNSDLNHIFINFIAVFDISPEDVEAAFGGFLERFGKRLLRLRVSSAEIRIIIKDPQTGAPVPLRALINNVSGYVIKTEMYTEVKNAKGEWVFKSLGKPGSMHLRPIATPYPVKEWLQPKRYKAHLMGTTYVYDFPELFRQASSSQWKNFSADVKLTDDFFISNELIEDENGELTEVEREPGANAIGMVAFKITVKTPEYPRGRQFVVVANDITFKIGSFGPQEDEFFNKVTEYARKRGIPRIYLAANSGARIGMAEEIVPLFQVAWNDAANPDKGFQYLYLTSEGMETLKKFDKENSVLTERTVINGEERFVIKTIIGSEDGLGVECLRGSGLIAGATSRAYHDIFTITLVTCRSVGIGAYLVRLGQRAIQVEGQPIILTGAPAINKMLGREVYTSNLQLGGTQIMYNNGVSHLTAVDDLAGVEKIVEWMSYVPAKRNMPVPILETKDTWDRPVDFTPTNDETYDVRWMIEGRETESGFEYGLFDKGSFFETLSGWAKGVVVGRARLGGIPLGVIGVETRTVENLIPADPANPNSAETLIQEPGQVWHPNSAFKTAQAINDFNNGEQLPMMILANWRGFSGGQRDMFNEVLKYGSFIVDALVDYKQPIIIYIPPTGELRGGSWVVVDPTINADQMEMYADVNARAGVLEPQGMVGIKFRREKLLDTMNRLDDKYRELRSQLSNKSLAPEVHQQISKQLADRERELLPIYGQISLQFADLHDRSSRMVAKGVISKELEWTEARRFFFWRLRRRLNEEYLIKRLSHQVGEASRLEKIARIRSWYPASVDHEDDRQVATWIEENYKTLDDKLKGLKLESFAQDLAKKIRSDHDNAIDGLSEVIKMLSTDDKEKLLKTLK

[5] = read-out: MIC, C. albicans ATCC 90028, Table 3b (additional results), 3 replicates, MIC recorded at 48 h
[6] = read-out: MIC, C. krusei ATCC 6258, Table 3b (additional results), 3 replicates, MIC recorded at 48 h
[7] = read-out: MIC, C. parapsilosis ATCC 22019, Table 3b (additional results), 3 replicates, MIC recorded at 48 h
[8] = read-out: Concentration at 90% Inhibition Bc, Botrtyis cinerea
[9] = read-out: Concentration at 90% Inhibition Cg, Collectotrichum graminicola
[10] = read-out: Concentration at 90% Inhibition Dm, Diplodia maydis
[11] = read-out: Concentration at 90% Inhibition Fv, Fusarium virguliforme, growth inhibition at 48 hours vs 2% DMSO control
[12] = read-out: Concentration at 90% Inhibition Pc, Phytophthora capsici, growth inhibition at 48 hours vs 2% DMSO control
[13] = read-out: Concentration at 90% Inhibition Rs, Rhizoctonia solani, mycelial plugs, growth inhibition at 48 hours vs 2% DMSO control
[14] = read-out: Concentration at 90% Inhibition St, Septoria tritici
[15] = Table 3b (additional results), ATCC 90028, 3 replicates, MIC recorded at 48 h, read-out: MIC, C. albicans ATCC 90028
[16] = Table 3b (additional results), ATCC 6258, 3 replicates, MIC recorded at 48 h, read-out: MIC, C. krusei ATCC 6258
[17] = Table 3b (additional results), ATCC 22019, 3 replicates, MIC recorded at 48 h, read-out: MIC, C. parapsilosis ATCC 22019
[18] = Botrtyis cinerea, read-out: Concentration at 90% Inhibition Bc
[19] = Collectotrichum graminicola, read-out: Concentration at 90% Inhibition Cg
[20] = Diplodia maydis, read-out: Concentration at 90% Inhibition Dm
[21] = Fusarium moniliforme, growth inhibition at 48 hours vs 2% DMSO control
[22] = growth inhibition at 48 hours vs 2% DMSO control, read-out: Concentration at 90% Inhibition Fv
[23] = growth inhibition at 48 hours vs 2% DMSO control, read-out: Concentration at 90% Inhibition Pc
[24] = mycelial plugs, growth inhibition at 48 hours vs 2% DMSO control, read-out: Concentration at 90% Inhibition Rs
[25] = Septoria tritici, read-out: Concentration at 90% Inhibition St

Sequence of human (hACC2) (O00763 whole entry): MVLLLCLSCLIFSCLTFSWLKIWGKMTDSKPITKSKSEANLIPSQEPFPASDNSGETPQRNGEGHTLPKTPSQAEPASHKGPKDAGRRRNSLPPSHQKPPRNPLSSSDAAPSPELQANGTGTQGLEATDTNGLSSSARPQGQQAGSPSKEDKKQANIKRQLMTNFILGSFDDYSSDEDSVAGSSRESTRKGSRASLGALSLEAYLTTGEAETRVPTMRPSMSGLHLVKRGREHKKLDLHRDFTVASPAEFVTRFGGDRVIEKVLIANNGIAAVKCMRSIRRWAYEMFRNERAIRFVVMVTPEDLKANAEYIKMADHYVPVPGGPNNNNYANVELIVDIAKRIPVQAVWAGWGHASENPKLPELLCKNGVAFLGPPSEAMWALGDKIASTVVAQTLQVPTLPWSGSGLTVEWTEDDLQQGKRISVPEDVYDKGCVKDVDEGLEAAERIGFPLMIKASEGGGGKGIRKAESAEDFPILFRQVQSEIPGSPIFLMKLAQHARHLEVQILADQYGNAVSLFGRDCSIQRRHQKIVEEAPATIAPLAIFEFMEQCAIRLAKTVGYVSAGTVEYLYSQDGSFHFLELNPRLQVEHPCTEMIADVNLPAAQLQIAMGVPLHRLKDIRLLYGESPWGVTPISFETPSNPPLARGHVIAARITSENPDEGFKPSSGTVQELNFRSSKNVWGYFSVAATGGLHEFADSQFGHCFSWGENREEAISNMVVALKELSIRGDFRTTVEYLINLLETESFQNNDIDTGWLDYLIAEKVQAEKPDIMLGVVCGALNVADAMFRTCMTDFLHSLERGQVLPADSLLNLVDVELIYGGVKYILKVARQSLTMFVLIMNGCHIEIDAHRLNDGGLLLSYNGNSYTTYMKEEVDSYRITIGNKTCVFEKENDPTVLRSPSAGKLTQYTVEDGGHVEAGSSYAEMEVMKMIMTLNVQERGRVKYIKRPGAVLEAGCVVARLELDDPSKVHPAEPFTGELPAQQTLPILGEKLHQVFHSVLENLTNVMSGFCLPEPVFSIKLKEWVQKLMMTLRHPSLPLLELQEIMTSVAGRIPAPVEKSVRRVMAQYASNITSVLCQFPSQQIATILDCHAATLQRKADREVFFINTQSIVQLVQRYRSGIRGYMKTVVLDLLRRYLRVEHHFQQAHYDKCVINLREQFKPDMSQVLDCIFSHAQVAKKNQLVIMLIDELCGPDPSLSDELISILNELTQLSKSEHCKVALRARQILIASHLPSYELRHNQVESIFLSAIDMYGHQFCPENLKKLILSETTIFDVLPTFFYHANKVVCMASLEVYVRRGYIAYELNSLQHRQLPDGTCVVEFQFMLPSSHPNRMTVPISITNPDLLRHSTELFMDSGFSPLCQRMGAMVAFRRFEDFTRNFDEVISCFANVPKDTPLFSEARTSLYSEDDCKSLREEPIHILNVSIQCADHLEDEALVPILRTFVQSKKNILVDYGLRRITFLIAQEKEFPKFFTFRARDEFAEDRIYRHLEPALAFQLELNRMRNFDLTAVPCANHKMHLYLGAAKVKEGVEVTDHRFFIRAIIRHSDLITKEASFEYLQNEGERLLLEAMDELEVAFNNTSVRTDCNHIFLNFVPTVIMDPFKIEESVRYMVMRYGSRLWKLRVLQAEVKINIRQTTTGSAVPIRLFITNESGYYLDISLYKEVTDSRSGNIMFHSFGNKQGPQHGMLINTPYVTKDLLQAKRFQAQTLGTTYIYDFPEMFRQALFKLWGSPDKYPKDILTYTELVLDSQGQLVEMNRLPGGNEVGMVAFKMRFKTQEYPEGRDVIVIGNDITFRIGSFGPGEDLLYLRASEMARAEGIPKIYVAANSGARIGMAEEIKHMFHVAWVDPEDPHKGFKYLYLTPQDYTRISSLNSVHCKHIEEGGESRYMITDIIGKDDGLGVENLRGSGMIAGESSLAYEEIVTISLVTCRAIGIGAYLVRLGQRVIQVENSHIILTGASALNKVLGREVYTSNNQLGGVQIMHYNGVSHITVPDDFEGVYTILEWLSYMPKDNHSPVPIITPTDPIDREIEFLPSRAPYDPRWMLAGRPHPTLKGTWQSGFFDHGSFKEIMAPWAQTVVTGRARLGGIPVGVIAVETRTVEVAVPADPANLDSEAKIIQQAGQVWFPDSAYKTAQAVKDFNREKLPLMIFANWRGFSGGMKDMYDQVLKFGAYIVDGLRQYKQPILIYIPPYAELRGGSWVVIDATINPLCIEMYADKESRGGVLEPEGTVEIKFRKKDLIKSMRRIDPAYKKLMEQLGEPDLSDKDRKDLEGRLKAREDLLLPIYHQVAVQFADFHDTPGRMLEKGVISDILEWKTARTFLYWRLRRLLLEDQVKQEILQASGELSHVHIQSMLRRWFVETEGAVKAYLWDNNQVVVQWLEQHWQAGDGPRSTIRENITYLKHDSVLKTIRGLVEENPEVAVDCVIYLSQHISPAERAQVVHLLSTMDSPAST

| SMILES | IC50 (human (hACC2)) [nM] | MIC (C. albicans; [5]) [µg/mL] | MIC (C. krusei; [6]) [µg/mL] | MIC (C. parapsilosis; [7]) [µg/mL] | IC90 (Botrtyis cinerea (Bc); [8]) [µg/mL] | IC90 [1, 9] [µg/mL] | IC90 (Diplodia maydis (Dm); [10]) [µg/mL] | IC90 [2] [µg/mL] | IC90 [3, 11] [µg/mL] | IC90 [4, 12] [µg/mL] | IC90 (Rhizoctonia solani (Rs); [13]) [µg/mL] | IC90 (Septoria tritici (St); [14]) [µg/mL] | IC50 (fungal (fACC2)) [nM] | MIC (C. albicans; [15]) [µg/mL] | MIC (C. krusei; [16]) [µg/mL] | MIC (C. parapsilosis; [17]) [µg/mL] | IC90 (Botrtyis cinerea (Bc); [18]) [µg/mL] | IC90 [1, 19] [µg/mL] | IC90 (Diplodia maydis (Dm); [20]) [µg/mL] | IC90 [2, 21] [µg/mL] | further results |
| --- | --- | --- | --- | --- | --- | --- | --- | --- | --- | --- | --- | --- | --- | --- | --- | --- | --- | --- | --- | --- | --- |
| CCc1ccc(F)cc1CCn1c(=O)n(C(C)(C)C(=O)NC(C)C)c(=O)c2c(C)c(-n3nccn3)sc21 [Compound I-276] | 5 to 10 | 2.01 to 4 (≈ 3.82 to 7.6 µM) | 1.01 to 2 (≈ 1.92 to 3.8 µM) | 2.01 to 4 (≈ 3.82 to 7.6 µM) | 2 (≈ 3.8 µM) | 2 (≈ 3.8 µM) | 2 (≈ 3.8 µM) | 0.08 (≈ 0.152 µM) | 0.08 (≈ 0.152 µM) | > 50 | 10 (≈ 19 µM) | > 50 | 0.3 to 1 | – | – | – | – | – | – | – | – |
| Cc1c(-n2nccn2)sc2c1c(=O)n(C(C)(C)C(=O)NC(C)C)c(=O)n2CCc1cc(F)ccc1OCc1ccccc1 [Compound I-277] | 10 to 40 | 1.01 to 2 (≈ 1.67 to 3.31 µM) | 1.01 to 2 (≈ 1.67 to 3.31 µM) | 1.01 to 2 (≈ 1.67 to 3.31 µM) | > 50 | > 50 | > 50 | 2 (≈ 3.31 µM) | 2 (≈ 3.31 µM) | > 50 | > 50 | > 50 | 1 to 5 | – | – | – | – | – | – | – | – |
| Cc1c(-n2nccn2)sc2c1c(=O)n(C(C)(C)C(=O)NC(C)C)c(=O)n2CCc1cc(F)ccc1CCCC#N [Compound I-278] | 10 to 40 | – | – | – | – | – | – | – | – | – | – | – | 1 to 5 | 2.01 to 4 (≈ 3.55 to 7.07 µM) | 1.01 to 2 (≈ 1.79 to 3.54 µM) | 2.01 to 4 (≈ 3.55 to 7.07 µM) | 2 (≈ 3.54 µM) | 10 (≈ 17.7 µM) | 2 (≈ 3.54 µM) | 0.4 (≈ 0.707 µM) | IC90 [3, 22]: 0.4 µg/mL (≈ 0.707 µM); IC90 [4, 23]: > 50 µg/mL; IC90 (Rhizoctonia solani (Rs); [24]): 10 µg/mL (≈ 17.7 µM); IC90 (Septoria tritici (St); [25]): > 50 µg/mL |
| Cc1c(-n2nccn2)sc2c1c(=O)n(C(C)(C)C(=O)NC(C)C)c(=O)n2CCc1cc(F)ccc1OC1CCOCC1 [Compound I-279] | 10 to 40 | – | – | – | – | – | – | – | – | – | – | – | 0.3 to 1 | 2.01 to 4 (≈ 3.36 to 6.68 µM) | 2.01 to 4 (≈ 3.36 to 6.68 µM) | 1.01 to 2 (≈ 1.69 to 3.34 µM) | 2 (≈ 3.34 µM) | 10 (≈ 16.7 µM) | > 50 | 0.08 (≈ 0.134 µM) | IC90 [3, 22]: 0.08 µg/mL (≈ 0.134 µM); IC90 [4, 23]: > 50 µg/mL; IC90 (Rhizoctonia solani (Rs); [24]): 10 µg/mL (≈ 16.7 µM); IC90 (Septoria tritici (St); [25]): > 50 µg/mL |
| Cc1c(-n2nccn2)sc2c1c(=O)n(C(C)(C)C(=O)NC(C)C)c(=O)n2CCc1cc(F)ccc1OCCC#N [Compound I-280] | 10 to 40 | 1.01 to 2 (≈ 1.78 to 3.52 µM) | 1.01 to 2 (≈ 1.78 to 3.52 µM) | 1.01 to 2 (≈ 1.78 to 3.52 µM) | 10 (≈ 17.6 µM) | > 50 | > 50 | 2 (≈ 3.52 µM) | 2 (≈ 3.52 µM) | > 50 | > 50 | > 50 | 1 to 5 | – | – | – | – | – | – | – | – |
| Cc1c(-n2nccn2)sc2c1c(=O)n(C(C)(C)C(=O)NC(C)C)c(=O)n2CCc1cc(F)ccc1OC(C)C [Compound I-281] | 10 to 40 | – | – | – | – | – | – | – | – | – | – | – | 0.3 to 1 | > 4.01 | 1.01 to 2 (≈ 1.81 to 3.59 µM) | 2.01 to 4 (≈ 3.61 to 7.19 µM) | 2 (≈ 3.59 µM) | 10 (≈ 18 µM) | 2 (≈ 3.59 µM) | 0.08 (≈ 0.144 µM) | IC90 [3, 22]: 0.08 µg/mL (≈ 0.144 µM); IC90 [4, 23]: > 50 µg/mL; IC90 (Rhizoctonia solani (Rs); [24]): 10 µg/mL (≈ 18 µM); IC90 (Septoria tritici (St); [25]): > 50 µg/mL |
